For assay [1], the species on record is Homo sapiens. In words: Selectivity for acetylcholinesterase (unknown origin) over butyrylcholinesterase (unknown origin).
Assay [2] is filed under the species Homo sapiens. Briefly: Selectivity index, ratio of IC50 for butyrylcholinesterase (unknown origin) to IC50 for acetylcholinesterase (unknown origin).
The target of the next assay is Acetylcholinesterase (Homo sapiens, UniProt P22303). Briefly: Inhibition of acetylcholinesterase (unknown origin) using acetylthiocholine as substrate preincubated for 20 mins followed by substrate addition by Ellmans method. A general note: Ellman's reagent forms a yellow product with free thiols.
The next assay concerns HepG2. Briefly: Cytotoxicity against human HepG2 cells after 48 hrs by MTT assay. The note with it: HepG2, 48 h. The assay is classed as cell-based. Background: Formazan colour is commonly taken as a measure of viable cells.
Assay [3] is filed under the species Homo sapiens. In words: Selectivity index, ratio of IC50 for acetylcholinesterase (unknown origin) to IC50 for butyrylcholinesterase (unknown origin).
In the next assay the target is Cholinesterase (Homo sapiens, UniProt P06276). Briefly: Inhibition of butyrylcholinesterase (unknown origin) using acetylthiocholine as substrate preincubated for 20 mins followed by substrate addition by Ellmans method.

Structures are written as SMILES. pIC50: −log10 of the molar value.

By pIC50 is commonly meant the negative decadic logarithm of the IC50, by convention in mol/L. Read a high pIC50 as a low IC50.

Acetylcholinesterase, sequence (P22303 whole entry): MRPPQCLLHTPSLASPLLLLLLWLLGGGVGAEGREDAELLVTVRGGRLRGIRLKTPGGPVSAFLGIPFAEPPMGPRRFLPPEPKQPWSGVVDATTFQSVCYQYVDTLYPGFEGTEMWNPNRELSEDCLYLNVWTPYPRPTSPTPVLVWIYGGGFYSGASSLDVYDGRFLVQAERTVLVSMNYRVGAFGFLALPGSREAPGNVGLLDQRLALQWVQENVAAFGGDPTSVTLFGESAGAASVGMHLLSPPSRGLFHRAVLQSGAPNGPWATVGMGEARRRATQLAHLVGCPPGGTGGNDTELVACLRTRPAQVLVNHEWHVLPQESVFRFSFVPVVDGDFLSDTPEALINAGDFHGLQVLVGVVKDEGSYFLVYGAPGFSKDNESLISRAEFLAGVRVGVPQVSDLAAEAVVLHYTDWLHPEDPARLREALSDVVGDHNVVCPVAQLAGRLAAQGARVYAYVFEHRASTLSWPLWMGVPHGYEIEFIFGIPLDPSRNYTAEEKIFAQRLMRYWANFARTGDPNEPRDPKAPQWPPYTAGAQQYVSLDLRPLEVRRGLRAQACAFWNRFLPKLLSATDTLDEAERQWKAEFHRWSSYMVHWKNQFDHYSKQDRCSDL
Cholinesterase, sequence (P06276 whole entry): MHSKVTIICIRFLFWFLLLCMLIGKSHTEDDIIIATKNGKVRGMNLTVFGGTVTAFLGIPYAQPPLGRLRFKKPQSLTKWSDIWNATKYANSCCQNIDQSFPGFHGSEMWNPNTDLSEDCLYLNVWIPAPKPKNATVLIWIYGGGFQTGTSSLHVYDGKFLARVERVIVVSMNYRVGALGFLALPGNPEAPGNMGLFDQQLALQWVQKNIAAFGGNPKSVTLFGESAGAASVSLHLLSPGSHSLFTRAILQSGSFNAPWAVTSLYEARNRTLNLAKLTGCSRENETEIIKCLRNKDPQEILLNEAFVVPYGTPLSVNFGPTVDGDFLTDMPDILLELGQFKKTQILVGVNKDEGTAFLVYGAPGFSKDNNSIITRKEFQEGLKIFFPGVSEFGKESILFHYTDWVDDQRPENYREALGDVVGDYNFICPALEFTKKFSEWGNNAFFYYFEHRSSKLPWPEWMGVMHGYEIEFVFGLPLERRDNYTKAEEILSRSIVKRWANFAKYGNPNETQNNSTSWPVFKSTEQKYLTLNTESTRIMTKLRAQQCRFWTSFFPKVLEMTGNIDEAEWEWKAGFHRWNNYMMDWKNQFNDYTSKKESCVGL

In the case of `COc1cc2c(cc1OC)C(=O)C(CC1CCN(Cc3ccccc3)CC1)C2` (stereo unspecified), the Selectivity ratio in the assay filed under Homo sapiens [1] came out at 10000.
With `Cc1cc2nc3c(nc2cc1C)C1(C(C#N)=C(N)N2CCCNC2=C1[N+](=O)[O-])c1ccccc1-3` (stereo unspecified), the values for the Ratio IC50 in the assay filed under Homo sapiens [2] and in the assay listed under Homo sapiens [3] were 1.67 and 0.6, respectively. The pIC50 on Acetylcholinesterase was 5.24; in the assay with HepG2, 3.77; at Cholinesterase, 5.02.
Turning to `N#CC1=C(N)N2CCCNC2=C([N+](=O)[O-])C12c1ccccc1-c1nc3ccc([N+](=O)[O-])cc3nc12` (stereo unspecified), the Ratio IC50 was found to be 2.49 in the assay listed under Homo sapiens [2] and 0.402 in the assay filed under Homo sapiens [3]. Also, the pIC50 at Acetylcholinesterase is 5.41; in the assay on HepG2, 3.79; against Cholinesterase it was 5.01.
The like results for `N#CC1=C(N)N2CCCNC2=C([N+](=O)[O-])C12c1ccccc1-c1nc3ccccc3nc12` (stereo unspecified) were, in that order, 2.43, 0.411, 5.38, 3.76 and 4.99.
In the case of `CC1(C)CNC2=C([N+](=O)[O-])C3(C(C#N)=C(N)N2C1)c1ccccc1-c1nc2ccc([N+](=O)[O-])cc2nc13` (stereo unspecified), the figures for the Ratio IC50 in the assay filed under Homo sapiens [2] and in the assay filed under Homo sapiens [3] were 2.81 and 0.356, respectively. Also, the results for the pIC50 against Acetylcholinesterase, in the assay with HepG2 and at Cholinesterase were 5.44, 3.77 and 5.00, respectively.
Consider `N#CC1=C(N)N(Cc2ccccc2)C(NCc2ccccc2)=C([N+](=O)[O-])C12c1ccccc1-c1nc3ccccc3nc12` (stereo unspecified), for which the Ratio IC50 in the assay filed under Homo sapiens [2] came to 1.62; in the assay filed under Homo sapiens [3], 0.616. Besides, the pIC50 on Acetylcholinesterase is 5.28; in the assay on HepG2 it was 3.72; on Cholinesterase, 5.07.
With `N#CC1=C(N)N2CCNC2=C([N+](=O)[O-])C12c1ccccc1-c1nc3ccccc3nc12` (stereo unspecified), the values for the Ratio IC50 in the assay filed under Homo sapiens [2] and in the assay listed under Homo sapiens [3] were 1.31 and 0.761, respectively. The figures for the pIC50 against Acetylcholinesterase, in the assay on HepG2 and on Cholinesterase were 5.19, 3.71 and 5.08, respectively.
The like results for `Cc1cc2nc3c(nc2cc1C)C1(C(C#N)=C(N)N2CC(C)(C)CNC2=C1[N+](=O)[O-])c1ccccc1-3` (stereo unspecified) were, in that order, 2.2, 0.454, 5.40, 3.74 and 5.06.
The like results for `Cc1cc2nc3c(nc2cc1C)C1(C(C#N)=C(N)N2CCNC2=C1[N+](=O)[O-])c1ccccc1-3` (stereo unspecified) were, in that order, 1.11, 0.904, 5.18, 3.75 and 5.14.
Turning to `CC1(C)CNC2=C([N+](=O)[O-])C3(C(C#N)=C(N)N2C1)c1ccccc1-c1nc2ccccc2nc13` (stereo unspecified), the Ratio IC50 in the assay listed under Homo sapiens [2] was 2.28; in the assay listed under Homo sapiens [3], 0.438. Besides, the pIC50 was 5.37 against Acetylcholinesterase, 3.74 with HepG2 and 5.01 at Cholinesterase.
The like results for `N#CC1=C(N)N(Cc2ccccc2)C(NCc2ccccc2)=C([N+](=O)[O-])C12c1ccccc1-c1nc3ccc([N+](=O)[O-])cc3nc12` (stereo unspecified) were, in that order, 2.07, 0.483, 5.36, 3.78 and 5.04.
As to `N#CC1=C(N)N2CCNC2=C([N+](=O)[O-])C12c1ccccc1-c1nc3ccc([N+](=O)[O-])cc3nc12` (stereo unspecified), the Ratio IC50 in the assay listed under Homo sapiens [2] worked out at 1.48; in the assay filed under Homo sapiens [3] it was 0.677. Besides, the pIC50 against Acetylcholinesterase is 5.19; with HepG2, 3.76; against Cholinesterase, 5.02.
The like results for `Cc1cc2nc3c(nc2cc1C)C1(C(C#N)=C(N)N(Cc2ccccc2)C(NCc2ccccc2)=C1[N+](=O)[O-])c1ccccc1-3` (stereo unspecified) were, in that order, 1.53, 0.651, 5.24, 3.76 and 5.05.
